{
  "source": "patent US11450405B2",
  "about": "“Techniques for modeling parathyroid gland functionality and calcimimetic drug activity” (Fresenius Medical Care Holdings, Inc., priority 2018, dated 2022)",
  "origin": "cited, not measured here",
  "key": {"[1]": {"settings": "for effect of hemodialysis on the pharmacokinetics: hemodialysis patients"}, "PTH concentration": {"system": "PTH concentration", "settings": "after the administration of cinacalcet"}, "[2]": {"settings": "listed as Cinacalcet hydrochloride"}},
  "note": "Like-named read-outs stand apart in the source and are kept apart here.",
  "data": [
    {"compound": "C[C@@H](NCCCc1cccc(C(F)(F)F)c1)c1cccc2ccccc12", "note": "[cinacalcet]", "values": [
      {"measurement": "bio-availability on administration with food", "setting": "[1]; administration with food", "value": "higher"},
      {"measurement": "peak concentrations on administration with food", "setting": "[1]; administration with food", "value": "higher"},
      {"measurement": "total exposure values on administration with food", "setting": "[1]; administration with food", "value": "higher"},
      {"measurement": "time at which plasma concentration peaks", "setting": "[1]; following oral administration", "value": "2 to 6", "unit": "h"},
      {"measurement": "effect of hemodialysis on the pharmacokinetics", "setting": "[1]", "value": "negligible"},
      {"measurement": "effect of hemodialysis on the pharmacokinetics", "setting": "[1]; [2]", "value": "not altered"},
      {"measurement": "higher terminal half-life values in hepatic impairment", "setting": "[1]; moderate to severe hepatic impairment", "value": "40-70%"},
      {"measurement": "absolute bioavailability", "setting": "[1]; oral administration", "value": "20-25%"},
      {"measurement": "absorption", "setting": "[1]; oral administration", "value": "~100", "unit": "%"},
      {"measurement": "Bio (bioavailability), reference range", "setting": "[1]; single 75 mg dose", "value": "20-25%"},
      {"measurement": "VD, reference range", "setting": "[1]; single 75 mg dose", "value": "1000 to 1250", "unit": "L"},
      {"measurement": "half-life of distribution t1/2^D, reference value", "setting": "[1]; single 75 mg dose", "value": 6, "unit": "h"},
      {"measurement": "terminal half-life, reference range", "setting": "[1]; single 75 mg dose", "value": "30 to 40", "unit": "h"},
      {"measurement": "tmax, reference range", "setting": "[1]; single 75 mg dose", "value": "1 to 6", "unit": "h"},
      {"measurement": "Cmax, mean reference value", "setting": "[1]; single 75 mg dose, SD 9.4", "value": 26.6, "unit": "ng/mL"},
      {"measurement": "mean apparent oral clearance rate CL/F", "setting": "[1]; single 75 mg dose, SD 148", "value": 314, "unit": "L/h"},
      {"measurement": "apparent oral clearance rate CL/F (target)", "setting": "[1]; single oral dose of 75 mg", "value": "around 314 L/h"},
      {"measurement": "apparent volume of distribution at steady state VD (target)", "setting": "[1]; single oral dose of 75 mg", "value": "around 1000 L"},
      {"measurement": "distribution half-life tD (target)", "setting": "[1]; single oral dose of 75 mg", "value": 6, "unit": "h"},
      {"measurement": "time until the maximum plasma concentration is reached (target)", "setting": "[1]; single oral dose of 75 mg", "value": "around 2.3 hours"},
      {"measurement": "volume of distribution at steady state", "setting": "[1]; steady state", "value": 1000, "unit": "L"},
      {"measurement": "fraction of the drug in the plasma that is protein bound", "value": "Around 95%"},
      {"measurement": "fraction of the drug in the plasma that is protein bound", "setting": "[2]", "value": "~95", "unit": "%"},
      {"measurement": "time after dosing at which PTH concentration reaches a minimum", "setting": "PTH concentration", "value": "2 to 3", "unit": "h"}
    ]}
  ]
}
